# In ChEMBL document CHEMBL3885861, “Open TG-GATES”:
# Organism: Rattus norvegicus
# Assay: Open TG-GATES - Regimen: Daily Repeat
# Type: toxicity, organism-based, Sprague-Dawley
# Design: regimen Daily Repeat, gender Male, age 6 weeks
# Settings: in vivo, po, 100 mg/kg, route gavage, dose level Middle; for APTT / Bas / Eos / Fbg / Hb / Ht / Lym / MCH / MCHC / MCV / Mono / Neu / PT / Plat / RBC / Ret / WBC: tissue Blood; for KIDNEY_L / KIDNEY_R / KIDNEY_TOTAL: tissue Kidney; for LIVER: tissue Liver; for ALP / ALT / AST / BUN / CRE / DBIL / GLC / IP / K / LDH / Na / PL / RALB / TBIL / TC / TG / TP / gamma-GTP: tissue Plasma
compound,measurement,setting,value
Clc1ccccc1CN1CCc2sccc2C1 [TICLOPIDINE],TERMINAL_BW,"72 h, time 3 day",224.9 g
same,APTT,"72 h, time 3 day",21.3 s
same,Bas,"72 h, time 3 day",1%
same,Eos,"72 h, time 3 day",1%
same,Fbg,"72 h, time 3 day",224 mg/dL
same,Hb,"72 h, time 3 day",13.4 g/dL
same,Ht,"72 h, time 3 day",37.8%
same,Lym,"72 h, time 3 day",80.6%
same,MCH,"72 h, time 3 day",21.5 pg
same,MCHC,"72 h, time 3 day",35.5%
same,MCV,"72 h, time 3 day",60.4 fL
same,Mono,"72 h, time 3 day",2.6%
same,Neu,"72 h, time 3 day",14.6%
same,PT,"72 h, time 3 day",11.3 s
same,Plat,"72 h, time 3 day",125.6 x10_4/uL
same,RBC,"72 h, time 3 day",626.4 x10_4/ul
same,Ret,"72 h, time 3 day",5.6%
same,WBC,"72 h, time 3 day",100.7 x10_2/uL
same,KIDNEY_L,"72 h, time 3 day",1 g
same,KIDNEY_R,"72 h, time 3 day",1 g
same,KIDNEY_TOTAL,"72 h, time 3 day",1.9 g
same,LIVER,"72 h, time 3 day",11.8 g
same,ALP,"72 h, time 3 day",968 IU/L
same,ALT,"72 h, time 3 day",38.2 IU/L
same,AST,"72 h, time 3 day",65.8 IU/L
same,BUN,"72 h, time 3 day",15.4 mg/dL
same,CRE,"72 h, time 3 day",0.4 mg/dL
same,DBIL,"72 h, time 3 day",0.07 mg/dL
same,GLC,"72 h, time 3 day",195.6 mg/dL
same,IP,"72 h, time 3 day",7.3 mg/dL
same,K,"72 h, time 3 day",4 meq/L
same,LDH,"72 h, time 3 day",152.8 IU/L
same,Na,"72 h, time 3 day",142.2 meq/L
same,PL,"72 h, time 3 day",162.6 mg/dL
same,RALB,"72 h, time 3 day",3.3 g/dL
same,TBIL,"72 h, time 3 day",0.1 mg/dL
same,TC,"72 h, time 3 day",89.8 mg/dL
same,TG,"72 h, time 3 day",69.8 mg/dL
same,TP,"72 h, time 3 day",5.5 g/dL
same,gamma-GTP,"72 h, time 3 day",0.8 IU/L
same,TERMINAL_BW,"[…], time 7 day",258 g
same,TERMINAL_BW,"[…], time 14 day",306.1 g
same,TERMINAL_BW,"[…], time 28 day",394.5 g
same,APTT,"[…], time 7 day",22.3 s
same,Bas,"[…], time 7 day",0.6%
same,Eos,"[…], time 7 day",0.8%
same,Fbg,"[…], time 7 day",227.4 mg/dL
same,Hb,"[…], time 7 day",13.6 g/dL
same,Ht,"[…], time 7 day",38.2%
same,MCH,"[…], time 7 day",21.4 pg
same,MCHC,"[…], time 7 day",35.5%
same,MCV,"[…], time 7 day",60.4 fL
same,Mono,"[…], time 7 day",2.6%
same,Neu,"[…], time 7 day",13%
same,PT,"[…], time 7 day",11.6 s
same,Plat,"[…], time 7 day",123.7 x10_4/uL
same,RBC,"[…], time 7 day",633.2 x10_4/ul
same,Ret,"[…], time 7 day",5.4%
same,WBC,"[…], time 7 day",117.5 x10_2/uL
same,APTT,"[…], time 14 day",19.9 s
same,Bas,"[…], time 14 day",0.8%
same,Eos,"[…], time 14 day",0.8%
same,Fbg,"[…], time 14 day",220.4 mg/dL
same,Hb,"[…], time 14 day",14.5 g/dL
same,Ht,"[…], time 14 day",40.6%
same,Lym,"[…], time 14 day",80.6%
same,MCH,"[…], time 14 day",21.3 pg
same,MCHC,"[…], time 14 day",35.7%
same,MCV,"[…], time 14 day",59.6 fL
same,Mono,"[…], time 14 day",2.2%
same,Neu,"[…], time 14 day",15.4%
same,PT,"[…], time 14 day",11.8 s
same,Plat,"[…], time 14 day",114.3 x10_4/uL
same,RBC,"[…], time 14 day",681 x10_4/ul
same,Ret,"[…], time 14 day",4.3%
same,WBC,"[…], time 14 day",108.6 x10_2/uL
same,APTT,"[…], time 28 day",18.7 s
same,Bas,"[…], time 28 day",1%
same,Eos,"[…], time 28 day",0.8%
same,Fbg,"[…], time 28 day",219.8 mg/dL
same,Hb,"[…], time 28 day",15.3 g/dL
same,Ht,"[…], time 28 day",41.1%
same,Lym,"[…], time 28 day",81.6%
same,MCH,"[…], time 28 day",20 pg
same,MCHC,"[…], time 28 day",37.4%
same,MCV,"[…], time 28 day",53.4 fL
same,Mono,"[…], time 28 day",2.2%
same,Neu,"[…], time 28 day",13.6%
same,PT,"[…], time 28 day",11.6 s
same,Plat,"[…], time 28 day",114.7 x10_4/uL
same,RBC,"[…], time 28 day",770 x10_4/ul
same,Ret,"[…], time 28 day",3%
same,WBC,"[…], time 28 day",136.4 x10_2/uL
same,KIDNEY_L,"[…], time 7 day",1.2 g
same,KIDNEY_R,"[…], time 7 day",1.2 g
same,KIDNEY_TOTAL,"[…], time 7 day",2.3 g
same,KIDNEY_L,"[…], time 14 day",1.2 g
same,KIDNEY_R,"[…], time 14 day",1.2 g
same,KIDNEY_TOTAL,"[…], time 14 day",2.5 g
same,KIDNEY_L,"[…], time 28 day",1.5 g
same,KIDNEY_R,"[…], time 28 day",1.5 g
same,KIDNEY_TOTAL,"[…], time 28 day",3 g
same,LIVER,"[…], time 7 day",13 g
same,LIVER,"[…], time 14 day",14.1 g
same,LIVER,"[…], time 28 day",17.9 g
same,ALP,"[…], time 7 day",969.2 IU/L
same,ALT,"[…], time 7 day",39.4 IU/L
same,AST,"[…], time 7 day",73.2 IU/L
same,BUN,"[…], time 7 day",14.8 mg/dL
same,CRE,"[…], time 7 day",0.4 mg/dL
same,DBIL,"[…], time 7 day",0.068 mg/dL
same,GLC,"[…], time 7 day",192.6 mg/dL
same,IP,"[…], time 7 day",7.2 mg/dL
same,K,"[…], time 7 day",3.9 meq/L
same,LDH,"[…], time 7 day",144.8 IU/L
same,Na,"[…], time 7 day",142.4 meq/L
same,PL,"[…], time 7 day",145.4 mg/dL
same,RALB,"[…], time 7 day",3.5 g/dL
same,TBIL,"[…], time 7 day",0.1 mg/dL
same,TC,"[…], time 7 day",74.8 mg/dL
same,TG,"[…], time 7 day",68.2 mg/dL
same,TP,"[…], time 7 day",5.7 g/dL
same,gamma-GTP,"[…], time 7 day",0.8 IU/L
same,ALP,"[…], time 14 day",792.6 IU/L
same,ALT,"[…], time 14 day",36.6 IU/L
same,AST,"[…], time 14 day",68.8 IU/L
same,BUN,"[…], time 14 day",15.8 mg/dL
same,CRE,"[…], time 14 day",0.4 mg/dL
same,DBIL,"[…], time 14 day",0.06 mg/dL
same,GLC,"[…], time 14 day",205 mg/dL
same,IP,"[…], time 14 day",7.5 mg/dL
same,K,"[…], time 14 day",3.8 meq/L
same,LDH,"[…], time 14 day",161.8 IU/L
same,Na,"[…], time 14 day",143.4 meq/L
same,PL,"[…], time 14 day",152.2 mg/dL
same,RALB,"[…], time 14 day",3.4 g/dL
same,TBIL,"[…], time 14 day",0.098 mg/dL
same,TC,"[…], time 14 day",78.8 mg/dL
same,TG,"[…], time 14 day",94.2 mg/dL
same,TP,"[…], time 14 day",5.7 g/dL
same,gamma-GTP,"[…], time 14 day",1 IU/L
same,ALP,"[…], time 28 day",625.8 IU/L
same,ALT,"[…], time 28 day",44 IU/L
same,AST,"[…], time 28 day",71.6 IU/L
same,BUN,"[…], time 28 day",17.6 mg/dL
same,CRE,"[…], time 28 day",0.5 mg/dL
same,DBIL,"[…], time 28 day",0.072 mg/dL
same,GLC,"[…], time 28 day",202.8 mg/dL
same,IP,"[…], time 28 day",7.5 mg/dL
same,K,"[…], time 28 day",3.8 meq/L
same,LDH,"[…], time 28 day",152.4 IU/L
same,Na,"[…], time 28 day",142.2 meq/L
same,PL,"[…], time 28 day",154.8 mg/dL
same,RALB,"[…], time 28 day",3.6 g/dL
same,TBIL,"[…], time 28 day",0.1 mg/dL
same,TC,"[…], time 28 day",76.8 mg/dL
same,TG,"[…], time 28 day",82.8 mg/dL
same,TP,"[…], time 28 day",6.3 g/dL
same,gamma-GTP,"[…], time 28 day",0.8 IU/L
